Patent US20230126310A1 (priority 2020, published 2023)
Where a name gives a salt, the structure may show the parent alone. Read-outs that look alike come from different tables or passages of the source.

Tests used:
[1] = tested on: SARS-CoV-2 (BetaCov/Belgium/GHB-03021/2020); assay: microbe, parasite or virus in culture; type: cell-based; details: for IC50 / Emax: Severe acute respiratory syndrome coronavirus 2, 120 h; for Emax: read-out: Maximum confluence reached (%)
[2] = Compound cytotoxicity against CaCo-2 cells at 48 hours; type: cell-based, Human; details: human
Procedure: The cytotoxicity of the profiled compounds towards CaCo-2 cells at 48 hours was assessed. […] After 48 hours, cytotoxicity was evaluated using both digital phase contrast readout as described above and ATP determination (Cell titre-glo, Promega Corp).

SARS-CoV-2 [3] = details: for % Inh (% inhibition of virus infection): comparative experiments, Examples 1 and 2
SARS-CoV-2 [4] = assay: microbe, parasite or virus in culture; details: for inhibition at 10 µM: read-out: % Inh. (% Inhibition of SARS-CoV-2)
[5] = comparative experiments, CaCo-2 cells, 48 hours
[6] = CaCo-2 cells, Table 5, further results of Examples 1 and 2, mean ± spread
[7] = Severe acute respiratory syndrome coronavirus 2, Caco-2, 48 h
[8] = Severe acute respiratory syndrome coronavirus 2, Caco-2, 48 h, read-out: pIC50 (converted)

SMILES	CC50 at 48 h [2, 6] [µM]	IC50 (SARS-CoV-2 [4]; [7]) [µM]	IC50 (SARS-CoV-2 [4]; [8]) [µM]	inhibition at 10 µM (SARS-CoV-2 [4]; [7]) [%]	other results
CC/C(=C(\c1ccc(O)cc1)c1ccc(OCCNC)cc1)c1ccccc1 [Endoxifen HCl]					IC50 [1]: 6.34 µM; Emax [1]: 35.7%
Nc1nc2nc[nH]c2c(=S)[nH]1 [TIOGUANINE]					CC50 at 48 h [2, 5]: 2.21 ± 1.48 µM; % Inh (% inhibition of virus infection) (SARS-CoV-2 [3]): 99.9%
CC[C@@H]([C@H](C)O)n1ncn(-c2ccc(N3CCN(c4ccc(OC[C@@H]5CO[C@@](Cn6cncn6)(c6ccc(F)cc6F)C5)cc4)CC3)cc2)c1=O [Posaconazole]	14.6 ± 0.67	2.37	2.34		
O=C(CCCN1CCC2(CC1)C(=O)N(Cc1cccc(F)c1)CN2c1ccccc1)c1ccc(F)cc1.O=C(O)/C=C\C(=O)O [3′-fluorobenzylspiperone]					Maximum confluence reached (%) [1]: 43.04%
CCCCN(CCCC)CCC(O)c1cc2c(Cl)cc(Cl)cc2c2cc(C(F)(F)F)ccc12 (stereo not shown) [Halofantrine]				91.4	Emax [1]: 51.8%
CCOc1ccc(/C=C2\NCCc3cc(OCC)c(OCC)cc32)cc1OCC [drotaverine]	9 ± 0.96			93.1	
C[C@@H]1C[C@@H]([C@H](O)CC2CC(=O)NC(=O)C2)C(=O)[C@@H](C)C1 [CYCLOHEXIMIDE]					Emax [1]: 63.7%
N=C(N)c1ccc2cc(OC(=O)c3ccc(N=C(N)N)cc3)ccc2c1 [Nafamostat mesylate]					CC50 at 48 h [2, 5]: > 20 µM; % Inh (% inhibition of virus infection) (SARS-CoV-2 [3]): 89.8%
NS(=O)(=O)OC[C@@H]1C[C@@H](n2ccc3c(N[C@H]4CCc5ccccc54)ncnc32)C[C@@H]1O [Pevonedistat hydrochloride]					CC50 at 48 h [2, 5]: 222 ± 332 µM; % Inh (% inhibition of virus infection) (SARS-CoV-2 [3]): 75.1%
CCOc1ccc(Cc2nccc3cc(OCC)c(OCC)cc23)cc1OCC [ETHAVERINE HYDROCHLORIDE]	11 ± 1.07	0.54	0.537	85	
CC(C)C(=O)OCC(=O)[C@@]12O[C@H](C3CCCCC3)O[C@@H]1C[C@H]1[C@@H]3CCC4=CC(=O)C=C[C@]4(C)[C@H]3[C@@H](O)C[C@@]12C [Ciclesonide]				85.4	IC50 [1]: 47 µM; Emax [1]: 35.2%
CN1CC[C@H](c2c(O)cc(O)c3c(=O)cc(-c4ccccc4Cl)oc23)[C@H](O)C1 [alvocidib]	0.06			87.8	
CC(=O)N1CCN(c2ccc(OCC3COC(Cn4ccnc4)(c4ccc(Cl)cc4Cl)O3)cc2)CC1 (stereo not shown) [KETOCONAZOLE]	28.6 ± 4.97			87.1	
Fc1ccc(C(c2ccc(F)cc2)N2CCN(C/C=C/c3ccccc3)CC2)cc1 [flunarizine]	137 ± 72.3			79.1	
NC(=O)c1nnn(Cc2cc(Cl)c(C(=O)c3ccc(Cl)cc3)c(Cl)c2)c1N [carboxyamidotriazole]					CC50 at 48 h [2, 5]: 0.11 ± 0.04 µM; % Inh (% inhibition of virus infection) (SARS-CoV-2 [3]): 135.1%
CCCCCCCCN=c1ccn(CCCCCCCCCCn2ccc(=NCCCCCCCC)cc2)cc1 [Octenidine Dihydrochloride]	2.4 ± 0.09	1.14	1.15	77	
CCOC(=O)O[C@]1(C(=O)OCCl)CC[C@H]2[C@@H]3CCC4=CC(=O)C=C[C@]4(C)[C@H]3[C@@H](O)C[C@@]21C [Loteprednol etabonate]	49 ± 45.9	21.3	21.4	102	
COC(=O)C[C@](O)(CCC(C)(C)O)C(=O)O[C@@H]1C(OC)=C[C@]23CCCN2CCc2cc4c(cc2[C@H]13)OCO4 [Harringtonine]		23.7	23.4	93.6	CC50 at 48 h ([2]; Table 5, further results of Examples 1 and 2, mean ± spread): 0.07 ± 0.06 µM; IC50 (SARS-CoV-2 [4]; Severe acute respiratory syndrome coronavirus 2, Caco-2, read-out: IC50: concentration of 50% inhibition of virus infection, Table 5, further results of Examples 1 and 2, […]): 19 µM; IC50 (SARS-CoV-2 [4]; Severe acute respiratory syndrome coronavirus 2, Caco-2, read-out: pIC50: -log10 of IC50, Table 5, further results of Examples 1 and 2 (converted)): 19.1 µM
C=CCNc1nc(NCC=C)nc(N2CCN(C(c3ccc(F)cc3)c3ccc(F)cc3)CC2)n1 [Almitrine dimesilate]	102 ± 73.6	1.21	1.2	93.2	
CC(C)(C)Cn1c(N)nc2ccc(-c3[nH]c(C(C)(C)C)nc3-c3ccc(F)cc3)nc21 [LY2228820, Ralimetinib]	56.2 ± 9.79			112	
OCCNC1CCCc2c1[nH]c1ccc(-c3ccccc3)cc21 (stereo not shown) [casin]					% Inh. (% Inhibition of SARS-CoV-2) (SARS-CoV-2 [3]; 10 µM): 71.2%; Maximum confluence reached (%) [1]: 50.81%
CO[C@H]1CC[C@H](N2C(=O)CNc3ncc(-c4ccc(C(C)(C)O)nc4)nc32)CC1 [CC-223]	9.49 ± 2.55	23.6	23.4	104	
